From patent US11166965B2, “Compositions for use in stimulating bone growth” (Société des Produits Nestlé S.A., priority 2013, dated 2021)

Test system: primary osteoblasts
Assay: Alkaline phosphatase (ALP) activity of osteoblasts
Assay type: cell-based, Wistar rats
Conditions: day 15 of treatment; 10^-9 M 1,25(OH)2D3, 1 μM OLP, 1 μM HTy; vs negative control (C-); FIGS. 3 to 6
Experimental: Primary osteoblasts were isolated from the calvaria of newborn Wistar rats by enzymatic digestion as described by Declercq et al. in 2004. During all experiments, cells were maintained in α-minimal essential medium with 10% heat-inactivated fetal bovine serum and 1% penicillin/streptomycin under conditions of 5% CO2 and 37° C. Cells were seeded on Coll-1-coated 96-well plates at a density of 3500 cells/well or in 24-well plates at a density of 3×10^4 cells/well and cultured for 2 days in o-MEM to reach confluence. Cells were then exposed to different conditions: minimal medium (C−), minimal medium containing 50 μg/ml ascorbic acid, 5 mM ß-glycerophosphate (C+; optimized medium), and minimal medium supplemented with 1 μM Oleuropein ([…]) or/and 10^−9 M 1,25 dihydroxyvitamin D3 (1,25(OH)2D3). OLP and HTy were dissolved in dimethylsulfoxide (DMSO) and 1,25(OH)2D3 was dissolved in ethanol. The final concentrations of DMSO and ethanol in the medium were 0.1% each. The medium was changed every 2 days.
Enzymatic activity of Alkaline Phosphatase (ALP) was measured kinetically on Treatment Days 0, 5, 9, 12 and 15. Osteoblasts were rinsed twice with PBS before being frozen on dry ice. […] Absorbance was measured at 405 nm and 30° C., and every 2 min 30 s for 30 min using a VarioSklan Flash microplate reader. ALP activity was expressed as micromoles of p-NPP per hour per milligram of protein. […]

Q: With `C=C1/C(=C\C=C2/CCC[C@]3(C)[C@@H]([C@H](C)CCCC(C)(C)O)CC[C@@H]23)C[C@@H](O)C[C@@H]1O` [Vitamin D3, 1,25 dihydroxyvitamin D3] as the compound, how does the “AP (ALP) activity / osteoblast activity” value read?
A: Its value is “small but statistically significant increase”.
